Measured values published in patent US20250295693A1, “HYBRID TUMOR/CANCER THERAPY BASED ON TARGETING THE RESOLUTION OF OR INDUCING TRANSCRIPTION-REPLICATION CONFLICTS (TRCS)” (Julius-Maximilians-Universität Würzburg, priority 2021, published 2025).
“Also recorded” adds a separate entry of the source.

How the values were obtained:
pancreas carcinoma cells = experiment: Microscopy-based siRNA screen for DNA damage in pancreas carcinoma cells; assay type: cell-based; details: siRNA hits, low concentration of ATR inhibitor
Description: FIG. 1. […] Similar assays (not shown) establish that CDK12 acts downstream of PAF1 in this pathway. e: DNA damage and colony assays in response to combined inhibition of CDK12 and ATR.
Targeting the mechanisms that resolve TRCs is considered a viable strategy to inflict tumor cell-specific DNA damage and/or to sensitize tumors to immune cell-mediated killing. Several of the mechanisms described herein appear to be specific for MYCN-driven tumors. For example, (c-)MYC (herein also just “MYC”) binds only very weakly to Aurora-A (Dauch, Nat Med 22, 2016, 744-53). Therefore, pathways have been identified that resolve TRCs in models of MYC driven tumors, which encompasses the vast majority of all tumors. Specifically, there was a focus on conflicts in a cell line established from the KPC model of pancreas carcinoma (Hingorani, loc.cit.). This reflects human PDAC. In this model, an siRNA screen of 86 candidate genes was performed using several parallel microscope-based assays to measure the occurrence of TRCs (FIG. 1).

[1] = molecular target: Aurora-A alleles, T217D and T217E (Homo sapiens, UniProt O14965, T217D); details: cited from earlier work
RPA194 and RAD9 = experiment: Proximity ligation assays for RPA194 and RAD9; assay type: cell-based
Description: (§1) Deregulation of the WNT pathway in CRC not only deregulates transcription by RNAPII, but also by RNA polymerase I, which transcribes ribosomal RNAs in the nucleolus; this leads to enhanced synthesis of ribosomal RNA (Morral, Cell stem cell 26, 2020, 845-61). This is mediated by a beta-catenin dependent upregulation of multiple components of the ribosomal RNA synthesis machinery (FIG. 4a). Further to these observations, the effect of CX-5461, an inhibitor of RNA polymerase I transcription on the growth of CRC metastases, was analyzed. […] This observation was confirmed. […] Since there is an ongoing debate on the primary mechanism of CX-5461 action (Bruno, PNAS 117, 2020, 4053-60; Sanij, Nat Commun 11, 2020, 2641; Xu, Nat Commun 8, 2017, 14432), genetic work to validate its precise mechanism of action, and to further confirm that combining POL1 and ATR inhibition is a valid strategy to induce TRCs, is performed.

phosphoKap1 = experiment: EdU incorporation/Hoechst plots with phosphoKap1 staining (DNA damage in S-phase); assay type: cell-based; details: b279: in conjunction with ATR inhibition
Description: as §1

human CRC cell lines = experiment: Colony assays of CRC cells in culture; assay type: cell-based; details: low concentrations of CX-5461 combined with ATR inhibitor (AZD6738); p53-independent
Description: as §1

murine CRC organoids = experiment: Growth of CRC organoids, CX-5461 plus ATR inhibitor; assay type: cell-based; details: low concentrations of CX-5461 combined with ATR inhibitor (AZD6738)
Description: as §1

CDK12 kinase = details: cited from earlier work
MYC protein = experiment: Immunoblot of MYC protein in human tumor cells; assay type: cell-based; details: 24 h treatment
Description: FIG. 14. […] A: Immunoblot of tumor cells after 24 h treatment with Cymarin. B: Quantification of MYC protein levels in human pancreatic tumor cells and colorectal tumor cells.
(§2) After treatment for 24 h, cells were harvested in RIPA buffer containing protease and phosphatase inhibitor cocktails. The protein concentration was determined using BCA or Bradford assay. 15 μg of protein was loaded on a 10% SDS gel. After electrophoresis, proteins were transferred to 0.45 μm PVDF membrane and incubated with primary antibodies at 4° C. overnight. The signal was detected using peroxidase-conjugated species-specific secondary antibodies and visualized at LAS-4000 Luminescent Image Analyzer (Fujifilm).
An immunoblot of tumor cells after 24 h treatment with cymarin was made (FIG. 14A). Quantification of MYC protein levels in human pancreatic tumor cells and colorectal tumor cells was performed (FIG. 14B).

MYC = MYC expression in cells with ectopic expression of murine ATP1A1; assay type: cell-based
Description: FIG. 15. The effect of CG on MYC protein levels is mediated by inhibition of the NA/K pump. A: Depletion of the ATP1A1 subunit of the NA/K pump leads to the reduction of MYC protein levels. B: Ectopic expression of murine ATP1A1 renders the expression of MYC insensitive from the addition of cymarin, a prototypical KG.
as §2
Further, it was shown that the depletion of the ATP1A1 subunit of the NA/K pump leads to the reduction of MYC protein levels (FIG. 15A).

[2] = test system: human LS174 colo-rectal tumor cells; experiment: Extracellular acidification rate (lactate secretion), Seahorse XF96; assay type: cell-based

Sequence of Aurora-A alleles, T217D and T217E (O14965 whole entry T217D): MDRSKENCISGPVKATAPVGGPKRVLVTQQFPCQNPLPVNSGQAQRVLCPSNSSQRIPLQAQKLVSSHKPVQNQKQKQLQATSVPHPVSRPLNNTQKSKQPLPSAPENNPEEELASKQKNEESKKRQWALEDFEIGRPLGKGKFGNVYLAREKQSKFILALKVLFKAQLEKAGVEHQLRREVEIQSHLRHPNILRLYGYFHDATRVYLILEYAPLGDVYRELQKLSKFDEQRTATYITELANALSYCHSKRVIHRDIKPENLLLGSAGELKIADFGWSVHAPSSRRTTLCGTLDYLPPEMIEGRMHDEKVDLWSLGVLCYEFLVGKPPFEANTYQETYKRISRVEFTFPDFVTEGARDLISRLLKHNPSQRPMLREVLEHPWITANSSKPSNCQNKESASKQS

C[C@@H]1COCCN1c1cc(C2([S@](C)(=N)=O)CC2)nc(-c2cc[nH]c3nccc2-3)n1 [AZD6738]
DNA damage (pancreas carcinoma cells): strongly increased DNA damage

COc1cc(Nc2ncc3c(n2)-c2ccc(Cl)cc2C(c2c(F)cccc2OC)=NC3)ccc1C(=O)O [Alisertib]
resistance of cells [1]: resistant

Cc1cnc(CNC(=O)c2c(=O)c3ccc(N4CCCN(C)CC4)nc3n3c2sc2ccccc23)cn1 [CX-5461]
conflicts with DNA replication: proximity between RPA194 and RAD9 (RPA194 and RAD9): increased proximity
DNA damage during DNA replication (S-phase) (phosphoKap1): induction of DNA damage; also recorded: massive DNA damage
colony formation (human CRC cell lines): suppression of growth; also recorded: almost completely suppressed
colony formation / growth of organoids (murine CRC organoids): suppression of growth; also recorded: almost completely suppressed

Cn1cc(-n2cnc3c(NCc4nc5cc(Cl)c(Cl)cc5[nH]4)nc(N4CCOCC4)nc32)cn1 [SR4835]
inhibition of the CDK12 kinase (CDK12 kinase): specific and potent inhibitor

CO[C@H]1C[C@H](O[C@H]2CC[C@]3(C=O)[C@H]4CC[C@]5(C)[C@@H](C6=CC(=O)OC6)CC[C@]5(O)[C@@H]4CC[C@]3(O)C2)O[C@H](C)[C@H]1O [cymarin, Cymarin]
amount of MYC protein (MYC protein): reduce the amount of MYC protein
expression of MYC on addition of cymarin (MYC): insensitive
extracellular acidification rate (lactate secretion) ([2]; LS174 cells): significantly reduced
effect on extracellular acidification rate ([2]; overexpression of the murine 1 isoform of Na+/K+-ATPase): can be reduced
